From patent US6828450B2, “Triptycene analogs” (Kansas State University Research Foundation, priority 2000, dated 2004)
pIC50: −log10 of the molar value. Blank lines part the entries; values can stand above or below the molecule they belong to.

Columns and labels:
Type in all cases: cell-based, human
HL-60-RV cells [1] = test: DNA synthesis in HL-60-RV cells; conditions: for pIC50: read-out: IC50, inhibition of DNA synthesis in HL-60-RV cells
HL-60-R8 cells [2] = test: HL-60-R8 (MDR) cell proliferation assay; conditions: read-out: IC50, inhibition of HL-60-R8 cell proliferation
Source text: (§1) The MDR HL-60-RV and HL-60-R8 cells were developed in Melvin S. Center's laboratory (Kansas State University) and similarly maintained in RPMI 1640 medium in the absence of drugs (Marsh W, et al, Cancer Res 46: 4053-4057, 1986; McGrath T et al, and Center M S: Biochem Biophys Res Commun 145: 1171-1176, 1987; Marsh W and Center M S: Cancer Res 47: 5080-5086, 1987; McGrath T, et al, Biochem Pharmacol 38: 3611-3619, 1989; Marquardt D, et al, Cancer Res 50: 1426-1430, 1990; Marquardt D and Center M S: J Natl Cancer Inst 83: 1089-1109, 1991; Krishnamachary N and Center M S; Cancer Res 53: 3658-3661, 1993). Every 4 weeks, these HL-60-RV and HL-60-R8 sublines were exposed to 41 nM DAU for 48 h to stabilize their MDR phenotype. This concentration of DAU, which is not cytotoxic to MDR HL-60 sublines, was removed from the culture medium at least 48 h before experimentation. […] RFs were determined by dividing the IC50 of the MDR cells by that of the sensitive WT parent cell line.

HL-60-RV cells [3] = test: Nucleoside transport in HL-60-RV cells; conditions: for pIC50: 15-min preincubation, 30 s
Source text: FIG. 15. Comparison of the concentration-dependent inhibitions of the cellular transport of purine (A) and pyrimidine (B) nucleosides by DAU (open symbols) and TT2 (closed symbols) in HL-60-S (circles), HL-60-RV (squares) and HL-60-R8 (triangles) cells in vitro. Results are expressed as % of ^3H-adenosine (26,032±2,239 cpm, 100±9%, striped area in A) and ^3H-thymidine (17,934±1,398 cpm, 100±8%, striped area in B) transported into vehicle-treated control cells over 30 s.
as §1
L1210 cells (about 1.5×10^6 cells/0.5 ml) were preincubated for 15 min at 37° C. in the presence or absence of TTs and then exposed to 1 μCi of ^3H-thymidine for only 30 sec to assess the cellular uptake of nucleoside over such very short period of time. HL-60-S, HL-60-RV and HL-60-R8 cells (1.2×10^6 cells/0.5 ml) were preincubated for 15 min at 37° C. in the presence or absence (control) of drugs and then exposed to 1 μCi of [2,8-^3H]adenosine (30 Ci/mmol; American Radiolabeled Chemicals, St. Louis, Mo.) or [methyl-^3H]thymidine (50 Ci/mmol; Amersham, Arlington Heights, Ill.) for only 30 s to, respectively, assess the cellular uptake of purine and pyrimidine nucleosides over such very short period of time Reactions were diluted with 2 ml of ice-cold Ca^2+/Mg^2+-free Dulbecco's phosphate buffered saline (PBS) and the unincorporated radiolabel was removed by centrifugation at 200×g for 10 min. […] Cell lysates were mixed with 9 ml of Bio-Safe II (Researeh Products International) and counted to estimate the cellular uptake of ^3H-thymidine. Drug inhibition was expressed as % of ^3H-thymidine or ^3H-adenosine transported into vehicle-treated control cells over similar 30-sec period.

HL-60-RV cells [4] = test: DNA cleavage in HL-60-RV cells; conditions: 24 h
Method: FIG. 23. Comparison of the concentration-dependent inductions of DNA cleavage by DAU (open symbols in A) and TT2 (closed symbols in B) at 24 h in HL-60-S (circles), HL-60-RV (squares) and HL-60-R8 (triangles) cells containing ^3H-prelabeled DNA in vitro. Results are expressed as [cpm in supernatant/cpm in supernatant+pellet]×100 at 24 h. For untreated controls (14.7±1.7% DNA fragmentation, striped areas), the supernatant (DNA fragments) is 12,815±1,358 cpm and the pellet (intact DNA) is 74,406±9,078 cpm.
as §1, with “phenotype.” for “phenotype. This concentration of DAU, which is not cytotoxic to MDR HL-60 sublines, was removed from the culture medium at least 48 h before experimentation.”, “line. […]” for “line.”

HL-60-R8 cells [5] = test: HL-60-R8 (MDR) cell viability assay (MTS:PMS); conditions: read-out: IC50, decrease of HL-60-R8 cell viability
Source text: as §1

HL-60-S cells [6] = test: DNA synthesis in HL-60-S cells; conditions: for pIC50: read-out: IC50, inhibition of DNA synthesis in HL-60-S cells
HL-60-S cells [7] = test: HL-60-S cell viability assay (MTS:PMS)
Source text: as §1

HL-60-RV cells [8] = test: HL-60-RV (MDR) cell proliferation assay; conditions: for pIC50: read-out: IC50, inhibition of HL-60-RV cell proliferation
Source text: as §1

[9] = HL-60-RV and HL-60-R8 vs HL-60-S
[10] = HL-60-RV and HL-60-R8 vs HL-60-S, day 2
[11] = HL-60-RV and HL-60-R8 vs HL-60-S, day 4

SMILES: COc1cccc2c1C(=O)c1c(O)c3c(c(O)c1C2=O)C[C@@](O)(C(C)=O)C[C@@H]3O[C@H]1C[C@H](N)[C@H](O)[C@H](C)O1 [DAU, daunomycin, reference compound]
RFs, DNA synthesis (IC50 of MDR cells / IC50 of WT HL-60-S) (HL-60-RV cells [1]; [9]): 8.1-11.9
times MDR sublines are less sensitive, DNA synthesis (HL-60-RV cells [1]; [9]): 10 times
pIC50 (HL-60-RV cells [1]; Homo sapiens): 5.60
pIC50 (HL-60-R8 cells [2]; Homo sapiens, 48 h): 6.49
pIC50 (HL-60-R8 cells [2]; Homo sapiens, 96 h): 6.65
effect on nucleoside transport in the two MDR sublines (HL-60-RV cells [3]; HL-60-RV and HL-60-R8): unable
reduction of the peak of maximal DNA cleavage relative to HL-60-S cells (HL-60-RV cells [4]): 79%
pIC50 (HL-60-R8 cells [5]; Homo sapiens, 48 h): 5.60
pIC50 (HL-60-R8 cells [5]; Homo sapiens, 96 h): 6.42
pIC50 (HL-60-S cells [6]; Homo sapiens): 6.68
pIC50 (HL-60-S cells [7]; Homo sapiens, 48 h, read-out: IC50, decrease of HL-60-S cell viability): 7.10
pIC50 (HL-60-S cells [7]; Homo sapiens, 96 h, read-out: IC50, decrease of HL-60-S cell viability): 7.82
times less effective as cytostatic agent in MDR than in WT HL-60 cells (HL-60-RV cells [8]; [9]): about 30 times
RFs, cell proliferation (IC50 of MDR cells / IC50 of WT HL-60-S) (HL-60-RV cells [8]; [10]): 22.9-35.7
RFs, cell proliferation (IC50 of MDR cells / IC50 of WT HL-60-S) (HL-60-RV cells [8]; [11]): 25.0-30.6
pIC50 (HL-60-RV cells [8]; Homo sapiens, 48 h): 6.30
pIC50 (HL-60-RV cells [8]; Homo sapiens, 96 h): 6.56

RFs, DNA synthesis (IC50 of MDR cells / IC50 of WT HL-60-S) (HL-60-RV cells [1]; [9]): 1.2
pIC50 (HL-60-RV cells [1]): 5.68
pIC50 (HL-60-R8 cells [2]; day 2): 6.46
pIC50 (HL-60-R8 cells [2]; day 4): 6.54
pIC50 (HL-60-RV cells [3]; purine nucleoside, read-out: IC50, cellular transport of 3H-adenosine in HL-60-RV cells): 5.49
pIC50 (HL-60-RV cells [3]; pyrimidine nucleoside, read-out: IC50, cellular transport of 3H-thymidine in HL-60-RV cells): 5.70
pIC50 (HL-60-R8 cells [5]; day 2): 5.80
pIC50 (HL-60-R8 cells [5]; day 4): 6.46
pIC50 (HL-60-S cells [6]): 5.74
pIC50 (HL-60-S cells [7]; HL-60-S, HL-60-RV and HL-60-R8, day 4, read-out: IC50 values, decrease of cell viability, range over the three lines): 6.46 to 6.64
pIC50 (HL-60-S cells [7]; day 2, read-out: IC50, decrease of HL-60-S cell viability): 5.89
pIC50 (HL-60-S cells [7]; day 4, read-out: IC50, decrease of HL-60-S cell viability): 6.64
RFs, cell proliferation (IC50 of MDR cells / IC50 of WT HL-60-S) (HL-60-RV cells [8]; [10]): 0.9-1.3
RFs, cell proliferation (IC50 of MDR cells / IC50 of WT HL-60-S) (HL-60-RV cells [8]; [11]): 0.9-1.0
pIC50 (HL-60-RV cells [8]; day 2): 6.30
pIC50 (HL-60-RV cells [8]; day 4): 6.59
SMILES: COC1=CC(=O)C2=C(C1=O)C1C3=C(C(=O)C=CC3=O)C2c2ccccc21 (centres unmarked) [TT2, 2-Methoxy-9,10-dihydro-9,10-[1′,2′]benzenoanthracene-1,4,5,8-tetraone]
RFs, nucleoside transport (HL-60-RV cells [3]; HL-60-RV and HL-60-R8 vs HL-60-S, adenosine and thymidine): 1.0-1.2
reduction of the peak of maximal DNA cleavage relative to HL-60-S cells (HL-60-RV cells [4]): 39%
times TT2 inhibits DNA synthesis less effectively than DAU (HL-60-S cells [6]; HL-60-S): 9 times
times TT2 inhibits viability less effectively than DAU (HL-60-S cells [7]; HL-60-S): 15 times
RFs, tumor cell growth, viability and DNA synthesis together (HL-60-RV cells [8]; [9]): 0.9-1.5
